Data on 15 molecules can be found in patent US20140248358A1, “Therapeutic Nanoparticles Comprising a Therapeutic Agent and Methods of Making and Using Same” (BIND Therapeutics, Inc., priority 2012, published 2014).

In general, pKa refers to the pH at which an ionisable group is half protonated. By log P is commonly meant a log measure of how a compound divides between an organic and an aqueous phase.

The conditions of series [1]: cited from earlier work.
For series [2] the following is noted: hydrophobic acid; cited from earlier work.
A short description of series [3]: Solubility of dasatinib in solvents, quantified using HPLC. Format: physicochemical. The settings on record: for solubility: organic solvent or mixture, read-out: Dasatinib solubility (mg/mL, by HPLC). The text has this:
The solubility of dasatinib in benzyl alcohol, ethyl acetate, and mixtures of oleic acid and benzyl alcohol were quantified using HPLC.

A short description of series [4]: Stability of dasatinib in release buffer at 37° C.
Where [5] appears, read: protonatable nitrogen-containing therapeutic agent.

≈ marks a conversion by molar mass, not a printed value. Counter-ions that a name gives are not always drawn. Like-named read-outs stand apart in the source and are kept apart here.

Take `CCCCCCCCCCCCOS(=O)(=O)O` [dodecylsulfuric acid]: the pKa in series [1] (hydrophobic acid) is given as −0.09. In addition, the lipophilicity (log P) in series [2] is on record as 4.5.
Consider `CC(C)CCC[C@@H](C)[C@H]1CC[C@H]2[C@@H]3CC=C4C[C@@H](OS(=O)(=O)O)CC[C@]4(C)[C@H]3CC[C@]12C` [cholesteryl sulfate], for which the pKa in series [1] (hydrophobic acid) is on record as −1.4.
In the case of `CCN(CC)CCNC(=O)c1c(C)[nH]c(/C=C2\C(=O)Nc3ccc(F)cc32)c1C` [sunitinib, reference compound], in series [1] (setting [5]), the pKa is 7.07.
For the molecule `CCCCCCCC/C=C\CCCCCCCC(=O)OC[C@H](COP(=O)(O)O)OC(=O)CCCCCCC/C=C\CCCCCCCC` [dioleoyl phosphatidic acid], the pKa in series [1] (hydrophobic acid) is recorded as roughly 2.
In the case of `C[C@H](CCC(=O)O)[C@H]1CC[C@H]2[C@@H]3CC[C@@H]4C[C@H](O)CC[C@]4(C)[C@H]3C[C@H](O)[C@]12C` [deoxycholic acid], the pKa in series [1] (hydrophobic acid) was 4.65. Also, the “log P” value in series [2] is 3.79.
With `Cc1nc(Nc2ncc(C(=O)Nc3c(C)cccc3Cl)s2)cc(N2CCN(CCO)CC2)n1` [dasatinib], the solubility in series [3] (3% oleic acid in benzyl alcohol, 3% Oleic Acid in BA) is 16.8 mg/mL (≈ 34.5 mM); in series [3] (6% oleic acid in benzyl alcohol, 6% Oleic Acid in BA) it was 25.2 mg/mL (≈ 51.6 mM); in series [3] (9% oleic acid in benzyl alcohol, 9% Oleic Acid in BA) it was 29.8 mg/mL (≈ 61.1 mM); in series [3] (solvent BA (benzyl alcohol)), 9.45 mg/mL (≈ 19.4 mM); in series [3] (solvent EA (ethyl acetate)), 0.32 mg/mL (≈ 0.656 mM). Further, in series [3] (benzyl alcohol doped with oleic acid vs benzyl alcohol), the “improvement of solubility of dasatinib” value is reported as 2-3 fold. In addition, the pKa in series [1] (setting [5]) is recorded as 7.07. Further, the “stability in release buffer” value in series [4] is “degraded after 24 hours”.
For the molecule `CCCCCCCCCCCCc1ccc(S(=O)(=O)O)cc1` [dodecylbenzenesulfonic acid], the pKa in series [1] (hydrophobic acid) is recorded as −1.8. Also, the “log P” value in series [2] is recorded as 6.6.
For `C=C1CC[C@@H](OS(=O)(=O)O)C/C1=C/C=C1\CCC[C@]2(C)[C@@H]([C@H](C)CCCC(C)C)CC[C@@H]12` [Vitamin D3-sulfate], the pKa in series [1] (hydrophobic acid) is −1.5.
For `O=S(=O)(O)c1ccc2ccccc2c1` [naphthalene-2-sulfonic acid], the pKa in series [1] (hydrophobic acid) is −1.8. Moreover, the “log P” value in series [2] was 2.1.
For `CC[C@]1(O)C[C@H]2CN(CCc3c([nH]c4ccccc34)[C@@](C(=O)OC)(c3cc4c(cc3OC)N(C=O)[C@H]3[C@@](O)(C(=O)OC)[C@H](OC(C)=O)[C@]5(CC)C=CCN6CC[C@]43[C@@H]65)C2)C1` [vincristine, reference compound], in series [1] (setting [5]), the pKa is 7.08.
Take `CCCCCCCC/C=C\CCCCCCCC(=O)O` [oleic acid]: in series [1] (hydrophobic acid), the pKa is on record as 4-5. In addition, the “log P” value in series [2] is recorded as 6.78.
For the molecule `O=S(=O)(O)c1cccc2c(S(=O)(=O)O)cccc12` [naphthalene-1,5-disulfonic acid], in series [1] (hydrophobic acid), the pKa is reported as −2. Besides, in series [2], the “log P” value was 1.3.
Take `O=C(O)c1ccc2ccccc2c1O` [1-hydroxy-2-naphthoic acid]: in series [1] (hydrophobic acid), the pKa is 2-3. In addition, the “log P” value in series [2] was 2.97.
On to `Cc1ccc(NC(=O)c2ccc(CN3CCN(C)CC3)cc2)cc1Nc1nccc(-c2cccnc2)n1` [imatinib, reference compound], for which the pKa in series [1] (setting [5]) is 8.38.
Consider `O=C(O)c1cc2ccccc2c(Cc2c(O)c(C(=O)O)cc3ccccc23)c1O` [pamoic acid], for which the pKa in series [1] (hydrophobic acid) is reported as 2.4.
